In one test the target is T1, UcpA (Escherichia coli, UniProt P37440, T153Q).
T1 construct: made in house; host or cells: E. coli LY180 (pLOI4856), IPTG-induced; clarified cell lysate, not purified
It counts as biochemical. Particulars: lysates of induced LY180 (pLOI4856) vs empty vector control, appropriate cofactors. On the procedure: Cultures were grown overnight to a cell density of approximately 0.66 mg dcw ml^−1 (37° C.) in closed tubes containing 20 ml AM1 (50 g liter^−1 xylose, 0.1 mM IPTG and 12.5 mg liter^−1 ampicillin). Cells were harvested by centrifugation (7,000 g for 5 min, 4° C.), washed twice with 10 ml of cold sodium phosphate buffer (50 mM pH 7.0), resuspended to a cell density of 4.4 mg dcw ml^−1, and disrupted in buffer containing 1 mM dithiothreitol using a Fastprep-24 (MP Biomedicals, Solon, Ohio). After clarification at 13,000 g (10 min, 4° C.), protein concentration was determined using a BCA™ Protein Assay Kit (Thermo Scientific, Rockford, Ill.). Furfural-dependent reduction was measured using NADH and NADPH by monitoring the decrease in absorbance at 340 nm (extinction coefficient of NADH of 6,220 M^−1 cm^−1; extinction coefficient of NADPH of […]). Reaction mixtures contained 200 mM phosphate buffer (pH 7.0), 10 mM furfural, and 0.2 mM NADH or NADPH. NADH-dependent and NADPH-dependent reduction of 5-HMF (10 mM) was measured in a similar fashion.
Additional compounds (ethanol, glycerol, n-butanol, 2-propanol, methanol, acetoin, diacetyl, methyglyoxal, dihydroxyacetone, acetaldehyde, and 1,3-propandiol) were tested as potential substrates for UcpA using appropriate cofactors.

In a further test the test system is LY180(pTrc99A). The test can be described thus: Furfural toxicity / MIC in tube cultures, vector control. Format: cell-based, Escherichia coli. On the procedure: (§1) Furfural toxicity was measured in tube cultures (13 mm by 100 mm) containing 4 ml of AM1 medium with 50 g liter^−1 xylose, 12.5 mg liter^−1 ampicillin, furfural, and other supplements as indicated (Miller et al., 2009a, b). Cultures were inoculated to an initial density of 22 mg dcw liter^−1. IPTG (0.1 mM) was included for fucO induction. Cell mass was measured at 550 nm after incubation for 48 h (37° C.). For cysteine supplement experiment, the culture condition was the same but included 0.1 mM cysteine as an amendment.
(§2) Derivatives of LY180 containing these plasmids were tested for furfural tolerance with (0.1 mM IPTG) and without IPTG induction using an MIC assay (Miller et al., 2009a; Miller et al., 2010; Wang et al., 2011b).

A further test concerns LY180 (pLOI4856). The test can be described thus: Furfural toxicity / MIC in tube cultures, ucpA plasmid. Format: cell-based, Escherichia coli. The procedure: as §1, §2
Another test deals with YqhD (Escherichia coli, UniProt Q46856). As to conditions: read-out: Km for NADPH; cited from earlier work.
Where [1] appears, read: Escherichia coli, read-out: MIC for 5-HMF.

Values after ≈ are worked out from the molar mass of the structure shown.

As usually defined, the MIC is the smallest concentration in the dilution series that meets the test's criterion for growth inhibition. Broadly, the Km is the substrate concentration at which the rate is half of its maximum.

T1 sequence (P37440 whole entry T153Q): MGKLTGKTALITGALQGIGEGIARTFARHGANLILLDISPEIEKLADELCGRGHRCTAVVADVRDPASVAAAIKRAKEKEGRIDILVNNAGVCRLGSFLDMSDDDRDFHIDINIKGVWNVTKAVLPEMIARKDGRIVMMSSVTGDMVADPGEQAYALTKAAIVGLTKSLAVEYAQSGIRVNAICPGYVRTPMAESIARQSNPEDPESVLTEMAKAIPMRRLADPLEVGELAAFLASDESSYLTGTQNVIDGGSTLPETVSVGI
Chain of YqhD (Q46856 whole entry): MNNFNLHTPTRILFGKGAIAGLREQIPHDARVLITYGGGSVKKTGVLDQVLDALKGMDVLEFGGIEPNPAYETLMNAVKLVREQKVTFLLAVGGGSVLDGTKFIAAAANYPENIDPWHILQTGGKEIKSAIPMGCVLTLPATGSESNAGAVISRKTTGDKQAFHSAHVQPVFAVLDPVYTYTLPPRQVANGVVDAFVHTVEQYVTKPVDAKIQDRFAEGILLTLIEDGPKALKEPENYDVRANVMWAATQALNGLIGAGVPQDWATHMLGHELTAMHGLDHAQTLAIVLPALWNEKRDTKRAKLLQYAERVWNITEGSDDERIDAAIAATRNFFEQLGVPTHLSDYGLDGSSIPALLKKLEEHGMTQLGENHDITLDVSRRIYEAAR

With `CCCCO` [n-butanol], the “Metabolism as substrate for UcpA” value on UcpA is listed as “none appeared to be metabolized”. As to `CC=O` [acetaldehyde], the “Metabolism as substrate for UcpA” value on UcpA is given as “none appeared to be metabolized”. The same measure, in the same setting: the same measure for `CCO` [ethanol]: “none appeared to be metabolized”; for `OCC(O)CO` [glycerol]: “none appeared to be metabolized”. Still for that read-out and setting: the same measure for `CC(C)O` [2-propanol]: “none appeared to be metabolized”. Consider `CC(=O)C(C)O` (stereo not drawn) [acetoin], for which the “Metabolism as substrate for UcpA” value at UcpA is recorded as “none appeared to be metabolized”. As for `N[C@@H](CS)C(=O)O` [L-cysteine, reference compound], the “Effect of L-cysteine supplement on growth in the presence of furfural” value with LY180(pTrc99A) (0.1 mM L-cysteine, 10 mM furfural) was “cell growth was increased”; in the test with LY180 (pLOI4856) (0.1 mM L-cysteine, 10 mM furfural, ucpA induced) it was “did not alter the growth”. In the case of `CO` [methanol], the “Metabolism as substrate for UcpA” value at UcpA is on record as “none appeared to be metabolized”. With `CC(=O)C(C)=O` [diacetyl], the “Metabolism as substrate for UcpA” value at UcpA is “none appeared to be metabolized”. Regarding `O=Cc1ccc(CO)o1` [5-HMF, 5-hydroxymethylfurfural], the MIC came to 16 mM (≈ 2020 µg/mL) in the test on LY180(pTrc99A) (setting [1]) and 20 mM (≈ 2520 µg/mL) with LY180 (pLOI4856) (setting [1]). NADPH: the Michaelis constant (Km) at YqhD was 0.008 mM. On to `OCCCO` [1,3-propandiol], for which the “Metabolism as substrate for UcpA” value at UcpA is reported as “none appeared to be metabolized”. Same read-out and setting: the value for methyglyoxal was “none appeared to be metabolized”.

These data come from patent publication US9347077B2, “Over-expression of a putative oxidoreductase (UcpA) for increasing furfural or 5-hydroxymethylfurfural tolerance” (UNIVERSITY OF FLORIDA RESEARCH FOUNDATION, INCORPORATED, priority 2011, dated 2016).
